From paper PMC10517971, “An inverse agonist of orphan receptor GPR61 acts by a G protein-competitive allosteric mechanism” (Nature Communications, 2023) come the findings set out here.

The target of one experiment is T1, human GPR61 R140A (Homo sapiens, UniProt Q9BZJ8, R140A).
T1 construct: expressed in transfected cells; host or cells: CHO-K1, transient (Fugene6)
Put plainly: Functional cAMP assay (HTRF), transiently transfected CHO-K1 cells, GPR61 R140A mutant. The format is cell-based. An excerpt: The human GPR61 (reference sequence NM_031936.4) cDNA was synthesized and subcloned into pcDNA5/FRT/TO (Thermo Fisher, Pittsburgh, PA). The pcDNA5/FRT/TO/ human GPR61 plasmid was then transfected into the Flp-In™-CHO Cell Line (Thermo Fisher, Pittsburgh, PA) and a doxycycline-inducible clonal cell line was selected (CHO TREx hGPR61 WT). Sequences encoding untagged and HiBit/hemagglutinin (HA)-tagged versions of the wild-type human GPR61 were synthesized and cloned into pcDNA3.1. The HiBit ([…]) and HA ([…]) tags were sequentially included after the N-terminal initiator methionine. Four single amino acid substitutions (N137A, R140A, V288A, N345A) were then introduced in the untagged and tagged human GPR61 constructs using site-specific mutagenesis. The nucleotide sequences of all receptor constructs were confirmed by automated DNA sequencing.
Parental CHO-K1 cells were maintained at 37 °C in a humidified environment (5% CO2) and grown in Dulbecco’s Modified Eagle Medium (DMEM) F-12 media (Gibco, 11320033) supplemented with 10% FBS, 1% Glutamax (Gibco, 35050061) and 100units/ml penicillin and streptomycin (Gibco, 15140122. Cells were dissociated using a cell dissociation solution (Gibco, 13151-014), counted, and resuspended in complete culture media without antibiotics. Cells were then transiently transfected using Fugene6 (Promega) in a 384-well plate format (Corning, 3570). For each well, 7500 cells were transfected with 5 ng of receptor plasmid, 20 ng of carrier DNA (Promega, PAE4881) and 0.075 μl Fugene6 in a final volume of 25 μl. […] Surface and total receptor expression was measured separately by adding 25 μl per well of the extracellular (Promega, PRN2421) and lytic (Promega, PRN3040) assay solutions, respectively. Plates were incubated for 10 min at room temperature on a shaker and luciferase activity was measured using an EnVision plate reader (Perkin Elmer, Chicago, IL). […]
A homogeneous Time-Resolved Fluorescence (HTRF) assay (Perkin Elmer, Dynamic2 kit #) was used to assess receptor basal and inverse agonist activity at human GPR61, GPR62, and GPR101. […]
For orientation: Cyclic AMP is a second messenger, typically raised through Gs and lowered through Gi signalling.

The target in a further experiment is Human PDE7B (Homo sapiens, UniProt Q9NP56). Put plainly: Phosphodiesterase Assay (SPA). The format is biochemical.
Human PDE7B, sequence (Q9NP56 whole entry): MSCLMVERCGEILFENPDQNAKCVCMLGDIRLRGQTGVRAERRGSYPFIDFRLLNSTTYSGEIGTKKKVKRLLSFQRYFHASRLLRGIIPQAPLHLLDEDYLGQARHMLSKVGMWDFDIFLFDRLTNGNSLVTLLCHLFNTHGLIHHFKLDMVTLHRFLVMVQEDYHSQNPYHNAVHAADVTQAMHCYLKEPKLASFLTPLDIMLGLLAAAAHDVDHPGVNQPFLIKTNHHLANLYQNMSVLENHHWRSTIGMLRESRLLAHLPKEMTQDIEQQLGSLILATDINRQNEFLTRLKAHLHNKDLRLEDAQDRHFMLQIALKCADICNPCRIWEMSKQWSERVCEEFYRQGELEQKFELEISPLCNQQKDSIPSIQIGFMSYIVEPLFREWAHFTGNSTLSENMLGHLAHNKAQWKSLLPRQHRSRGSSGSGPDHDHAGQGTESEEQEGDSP
For a further experiment, the target named is Human PED9A1 (Homo sapiens, UniProt O76083). Put plainly: Phosphodiesterase Assay (SPA). The format is biochemical.
Human PED9A1, sequence (O76083 whole entry): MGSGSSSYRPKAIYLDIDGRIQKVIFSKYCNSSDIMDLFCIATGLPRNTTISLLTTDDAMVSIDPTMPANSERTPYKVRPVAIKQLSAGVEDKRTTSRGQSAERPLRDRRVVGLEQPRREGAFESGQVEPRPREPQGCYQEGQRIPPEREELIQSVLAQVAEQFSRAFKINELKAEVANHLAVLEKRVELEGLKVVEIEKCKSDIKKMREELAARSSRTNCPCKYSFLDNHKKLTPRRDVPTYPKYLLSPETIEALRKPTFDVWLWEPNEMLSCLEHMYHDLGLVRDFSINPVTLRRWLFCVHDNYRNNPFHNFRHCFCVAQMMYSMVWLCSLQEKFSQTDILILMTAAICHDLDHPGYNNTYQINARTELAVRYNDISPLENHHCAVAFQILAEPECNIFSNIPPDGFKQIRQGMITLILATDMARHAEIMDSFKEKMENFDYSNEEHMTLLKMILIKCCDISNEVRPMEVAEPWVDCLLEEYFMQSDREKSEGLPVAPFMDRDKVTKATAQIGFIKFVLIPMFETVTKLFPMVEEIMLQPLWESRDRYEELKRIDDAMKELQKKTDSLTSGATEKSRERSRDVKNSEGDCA

pIC50: −log10 of the molar value. Several values for one entry are separate records, joined by “and”; a condition that tells them apart may be missing. Identical values can stand only once.

T1 sequence (Q9BZJ8 whole entry R140A): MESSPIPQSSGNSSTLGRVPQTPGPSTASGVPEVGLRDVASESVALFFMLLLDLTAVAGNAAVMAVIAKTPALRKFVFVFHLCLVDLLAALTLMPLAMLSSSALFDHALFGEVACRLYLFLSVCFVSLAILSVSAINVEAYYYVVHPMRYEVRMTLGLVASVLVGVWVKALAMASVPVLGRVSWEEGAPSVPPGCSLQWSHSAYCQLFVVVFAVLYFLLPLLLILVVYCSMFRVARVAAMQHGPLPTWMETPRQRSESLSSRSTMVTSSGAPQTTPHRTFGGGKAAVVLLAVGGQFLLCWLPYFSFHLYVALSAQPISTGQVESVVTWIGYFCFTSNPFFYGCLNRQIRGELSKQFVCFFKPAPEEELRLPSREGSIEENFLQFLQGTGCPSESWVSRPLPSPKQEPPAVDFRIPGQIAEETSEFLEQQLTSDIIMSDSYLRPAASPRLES

Broadly, the pIC50 is −log10 of the IC50, conventionally taken in molar units. For the compound `CCOc1cc(C)nc(N(CCOC)S(=O)(=O)c2ccc(NCc3c(F)cncc3F)nc2OC)n1` [Compound 1], the negative-log IC50 (pIC50) on human GPR61 R140A (Fig. 3e table, untagged, read-out: GPR61 cAMP IC50 (95% CI), R140A Untagged) is 5.10; on Human PDE7B, 5.20; on Human PED9A1, under 3.70. In addition, the “cAMP response (Figure 3e source data)” value at human GPR61 R140A (HiBit R140A, concentration -8.5) was 4.06 and 2.30 and 2.96 and 2.25 and 3.21. The “sensitivity of the receptor to inverse agonism in the cAMP assay” value on human GPR61 R140A (R140A mutant vs wild-type) is “less sensitive”.
